Experimental data reported in patent US20190233522A1, “NEW DOSAGE REGIMENS FOR ANTIBODY DRUG CONJUGATES BASED ON ANTI-AXL ANTIBODIES” (GENMAB A/S, priority 2016, published 2019).

Assays:
LU2511 tumors = assay: Erlotinib-resistant NSCLC PDX model LU2511; type: in vivo, BALB/c nude mice
Protocol: Tumor fragments from donor mice bearing patient-derived NSCLC xenografts (LU2511) were used for inoculation into BALB/c nude mice. Each mouse was inoculated subcutaneously at the right flank with one tumor fragment (2-3 mm in diameter) and tumors were allowed to grow until the tumor volume was about 200 mm^3. […] The antibodies and ADCs were dosed intravenously (i.v.) at 4 mg/kg on the day of randomization (day 0) and on day 7. Erlotinib was dosed orally (per os) at 50 mg/kg daily for 2 weeks. Tumor volumes (mm^3) were monitored twice weekly and were calculated from caliper (PLEXX) measurements as: 0.5×(length)×(width)^2.

LU0858 = assay: Erlotinib-resistant NSCLC PDX model LU0858; type: in vivo, BALB/c nude mice
Protocol: (§1) Inoculation of tumor fragments into BALB/c nude mice and randomization was performed as described above.
(§2) Erlotinib was given daily for 14 days at a dose of 50 mg/kg. Erlotinib alone, IgG1-b12-vcMMAE and IgG1-b12 were used as controls.

LU1868 = assay: Erlotinib-resistant NSCLC PDX model LU1868; type: in vivo, BALB/c nude mice
Protocol: as §1
Erlotinib was given daily for 14 days at a dose of 50 mg/kg. Treatments with erlotinib alone, IgG1-b12-vcMMAE or IgG1-b12 were included as controls (FIG. 27).

LXFA 526 = assay: Erlotinib-resistant NSCLC PDX model LXFA 526; type: in vivo, NMRI nu/nu mice
Protocol: (§3) Inoculation of tumor fragments into 4-6 weeks old male NMRI nu/nu mice and randomization was performed as described above.
Erlotinib was given daily for 14 days at a dose of 50 mg/kg. Erlotinib alone, IgG1-b12-vcMMAE and IgG1-b12 were used as control.

LXFA 677 = assay: NSCLC PDX model LXFA 677; type: in vivo, NMRI nu/nu mice
Protocol: as §3, §2

LXFA 677_3 = assay: NSCLC PDX model LXFA 677_3 (acquired resistance to erlotinib); type: in vivo, NMRI nu/nu mice
Protocol: as §3, §2

ES0195 tumors = assay: Esophageal cancer PDX model ES0195; type: in vivo, BALB/c nude mice
Protocol: Tumor fragments from donor mice bearing patient-derived esophageal xenografts (ES0195) were used for inoculation into BALB/c nude mice. Each mouse was inoculated subcutaneously at the right flank with one tumor fragment (2-3 mm in diameter) and tumors were allowed to grow until the tumor volume was about 150 mm^3. […] The antibodies and ADCs were dosed intravenously (i.v.) at 4 mg/kg at day of randomization (day 0) and day 7. Paclitaxel was dosed intra-peritoneally (i.p.) at 20 mg/kg at day 0, 7, and 14. Tumor volumes (mm^3) were monitored twice weekly and were calculated from caliper (PLEXX) measurements as: 0.52×(length)×(width)^2.

CV1664 = assay: Cervical cancer PDX model CV1664; type: in vivo, BALB/c nude mice
Protocol: Inoculation of tumor fragments into BALB/c nude mice and randomization was performed as described in Example 23.

LCLC-103H cells = assay: Cytotoxicity assay (CellTiter-Glo) in LCLC-103H cells; type: cell-based, human; conditions: 5 days incubation
Protocol: (§4) LCLC-103H cells (human large cell lung cancer) and A431 cells (DMSZ, Braunschweig, Germany) were cultured in RPMI 1640 with L-Glutamine (Cambrex; cat.no. BE12-115F) supplemented with 10% (vol/vol) heat inactivated Cosmic Calf Serum (Perbio; cat.no. SH30087.03), 2 mM L-glutamine (Cambrex; cat.no. US17-905C), 50 IU/mL penicillin, and 50 µg/mL streptomycin (Cambrex; cat.no. DE17-603E). MDA-MB231 cells were cultured in DMEM with high glucose and HEPES (Lonza #BE12-709F), Donor Bovine Serum with Iron (Life Technologies #10371-029), 2 mM L-glutamine (Lonza #BE17 -605E), 1 mM Sodium Pyruvate (Lonza #BE13-115E), and MEM Non-Essential Amino Acids Solution (Life Technologies #11140). The cell lines were maintained at 37° C. in a 5% (vol/vol) CO2 humidified incubator. LCLC-103H, A431 and MDA-MB231 cells were cultured to near confluency, after which cells were trypsinized, resuspended in culture medium and passed through a cell strainer (BD Falcon, cat.no. 352340) to obtain a single cell suspension. […]
(§5) Subsequently, 180 μL per well was transferred to white 96-well Optiplate™ plates (PerkinElmer, Waltham, Mass.; cat.no. 6005299), which were incubated for 30 min at room temperature. Finally, luminescence was measured on an EnVision multiplate reader (Envision, Perkin Elmer).

A431 cells = assay: Cytotoxicity assay (CellTiter-Glo) in A431 cells; type: cell-based; conditions: A431 (n = 3), 5 days incubation
Protocol: as §4, §5

MDA-MB231 cells = assay: Cytotoxicity assay (CellTiter-Glo) in MDA-MB231 cells; type: cell-based; conditions: MDA-MB231 (n = 2), 5 days incubation
Protocol: as §4, §5

[1] = test system: LCLC-103H xenograft tumors; assay: Therapeutic treatment of SC LCLC-103H tumor xenografts (Example 3); type: in vivo, SCID mice
Protocol: The in vivo efficacy of MMAE-conjugated anti-AXL antibodies was determined in established subcutaneous (SC) LCLC-103H xenograft tumors in SCID mice. 5×10^6 LCLC-103H (large cell lung carcinoma) tumor cells (obtained from Leibniz-Institut DSMZ-Deutsche Sammlung von Mikroorganismen and Zellkulturen GmbH (DSMZ)) in 200 μL PBS were injected subcutaneously in the right flank of female SCID mice. Starting 14-21 days after tumor cell inoculation, when the average tumor size was >100-200 mm^3 and distinct tumor growth was observed, a single injection with 1 mg/kg (20 μg/mouse) IgG1-AXL-vcMMAE antibodies or control (unconjugated IgG1-b12) was given intraperitoneally (100 μL/mouse). Tumor volume was determined at least two times per week. Tumor volumes (mm^3) were calculated from caliper (PLEXX) measurements as: 0.52×(length)×(width)^2.

PAXF1657 tumors = assay: PAXF1657 pancreas cancer PDX model; type: in vivo, NMRI nu/nu mice
Protocol: Human pancreas tumor tissue was subcutaneously implanted in the left flank of 5-7 weeks old female NMRI nu/nu mice. […] At day of randomization (day 0), the 3 ADCs were dosed intravenously (i.v.) at either 4 mg/kg or 2 mg/kg, and the control group received a single dose of IgG1-b12 (4 mg/kg). Tumor volumes (mm^3) were monitored twice weekly and were calculated from caliper (PLEXX) measurements as: 0.52×(length)×(width)^2.

A431 tumors = assay: A431 xenograft model (high Gas6); type: in vivo; conditions: 3 mg/kg i.p., SCID mice
Protocol: (§6) Tumor induction was performed by subcutaneous injection of 5×10^6 A431 or LCLC-103H tumor cells (both obtained from Leibniz-Institut—Deutsche Sammlung von Mikroorganismen and Zellkulturen GmbH (DSMZ)) in 200 μL PBS in the right flank of female SCID mice. Treatment was started 14-21 days after tumor cell inoculation, when the average tumor size was >100-200 mm^3 and distinct tumor growth was observed. Mice received a single injection or a total of 4 biweekly intraperitoneal injections with IgG1-AXL-vcMMAE ADCs or control antibody (unconjugated IgG1-b12), as indicated. Tumor volume was determined at least two times per week. Tumor volumes (mm^3) were calculated from caliper (PLEXX) measurements as: 0.52×(length)×(width)^2.

LCLC-103H tumors = assay: LCLC-103H xenograft model (low Gas6, Example 5); type: in vivo; conditions: 1 mg/kg i.p., SCID mice
Protocol: as §6

[2] = 2 doses of 4 mg/kg on days 55 and 62

C#Cc1cccc(Nc2ncnc3cc(OCCOC)c(OCCOC)cc23)c1 [erlotinib, reference compound]
anti-tumor activity on LU2511 tumors (LU2511 tumors; 50 mg/kg per os daily for 2 weeks): did not induce anti-tumor activity | effect on tumor growth, LU0858 (LU0858; 50 mg/kg daily for 14 days): no effect on tumor growth | effect on tumor growth, LU1868 (LU1868; 50 mg/kg daily for 14 days): no effect on tumor growth | effect on tumor growth, LXFA 526 (LXFA 526; 50 mg/kg daily for 14 days): no effect on tumor growth | effect on tumor growth, LXFA 677 (LXFA 677; 50 mg/kg daily for 14 days): induced partial tumor regression | effect on tumor growth, LXFA 677_3 (LXFA 677_3; 50 mg/kg daily for 14 days): no effect on tumor growth

CC(=O)O[C@H]1C(=O)[C@@]2(C)[C@H]([C@H](OC(=O)c3ccccc3)[C@]3(O)C[C@H](OC(=O)[C@H](O)[C@@H](NC(=O)c4ccccc4)c4ccccc4)C(C)=C1C3(C)C)[C@]1(OC(C)=O)CO[C@@H]1C[C@@H]2O [paclitaxel, reference compound]
anti-tumor activity on ES0195 tumors (ES0195 tumors; 20 mg/kg i.p. day 0, 7 and 14): tumor growth inhibition | effect on tumor growth, CV1664 (CV1664; 20 mg/kg intraperitoneally day 0 and 7): induced partial tumor regression

IgG1-AXL-107
effect on tumor growth compared to IgG1-b12 control group, CV1664 (CV1664; 4 mg/kg day 0 and 7): only induced minor inhibition of tumor growth

IgG1-AXL-107-vcMMAE: anti-AXL antibody 107 (VH SEQ ID No 1, VL SEQ ID No 2) conjugated to MMAE via vc linker
EC50 (LCLC-103H cells): 0.022 µg/mL | EC50 Mean (A431 cells): 0.154 µg/mL | EC50 Mean (MDA-MB231 cells): 0.037 µg/mL | complete tumor reduction ([1]; 1 mg/kg single i.p.): in some mice within these groups to complete tumor reduction | tumor volume versus control IgG1-b12 ([1]; day 30, One Way ANOVA (Dunnett's), 1 mg/kg single i.p.): highly significant difference | anti-tumor activity in established SC LCLC-103H tumors ([1]; single i.p. injection 1 mg/kg, SCID mice): induced tumor regression | growth of PAXF1657 tumors compared to the control group (PAXF1657 tumors; 2 mg/kg i.v., day 0): significantly reduced the growth | anti-tumor activity on PAXF1657 tumors (PAXF1657 tumors; 4 mg/kg i.v., day 0): induced tumor regression | average tumor size versus isotype control IgG1-b12 (PAXF1657 tumors; day 14, 2 mg/kg or 4 mg/kg, p<0.001 Tukey's multiple comparison test): significantly smaller | anti-tumor activity on A431 tumors (A431 tumors): induced growth inhibition | anti-tumor activity on LCLC-103H tumors (LCLC-103H tumors): induced regression | anti-tumor activity on ES0195 tumors (ES0195 tumors; 4 mg/kg i.v. day 0 and day 7): induced tumor regression | anti-tumor activity on LU2511 tumors (LU2511 tumors; 4 mg/kg i.v. day 0 and day 7): induced tumor growth inhibition | effect on tumor growth, LU0858 (LU0858; 2 mg/kg day 0 and 7, alone): no effect on tumor growth | effect on tumor growth, LU0858 (LU0858; 4 mg/kg day 0 and 7, alone, compared to IgG1-b12-vcMMAE control): induced tumor growth inhibition | effect on tumor growth, LU1868 (LU1868; 2 mg/kg and 4 mg/kg, day 0 and 7, alone): induced tumor growth inhibition | effect on tumor growth, LXFA 526 (LXFA 526; 2 mg/kg day 0 and 7): induced tumor growth inhibition | effect on tumor growth, LXFA 526 (LXFA 526; 4 mg/kg day 0 and 7): complete tumor regression in all mice at least until day 76 | effect on tumor growth, LXFA 677 (LXFA 677; 2 mg/kg day 0 and 7): induced tumor growth inhibition | effect on tumor growth, LXFA 677 (LXFA 677; 4 mg/kg day 0 and 7): induced partial tumor regression | effect on tumor growth, LXFA 677_3 (LXFA 677_3; both dose levels (2 and 4 mg/kg), day 0 and 7, lasted at least until day 41): induced complete tumor regression | retreatment of three mice with tumor regrowth after paclitaxel, CV1664 (CV1664; [2]): Two of the three mice showed complete tumor regression | retreatment of two mice with tumor regrowth after initial 4 mg/kg ADC, CV1664 (CV1664; [2]): partial tumor regression in both mice | second retreatment of the one mouse with regrowth after paclitaxel and ADC, CV1664 (CV1664; 2 doses of 4 mg/kg on days 98 and 105): partial tumor regression | second retreatment of the same two mice, CV1664 (CV1664; 2 doses of 4 mg/kg on days 105 and 112): partial tumor regression in both animals | effect on tumor growth, CV1664 (CV1664; both dose levels (2 or 4 mg/kg), day 0 and 7, lasted at least until day 49): induced strong tumor regression
